Measured values: patent publication US20090069441A1, “Motuporamine Mimic Agents” (priority 2006, published 2009)
Read-outs that look alike come from different tables or passages of the source.

Key:
CHO-MG cells = details: 48 h incubation; data originally reported in Ref; cited from earlier work
CHO cells = details: data originally reported in Ref, cited from earlier work; for IC50: 48 h incubation
L1210 cells [1] = details: 48 h incubation; data originally reported in Ref; cited from earlier work
[2] = biological target: polyamine transporter (PAT); details: data originally reported in Ref; read-out: L1210 Ki value; cited from earlier work
[3] = tested on: Drosophila imaginal leg discs; experiment: Imaginal disc eversion assay; type: cell-based, Drosophila melanogaster; details: Drosophila melanogaster, 15 hr incubation in Robb's medium
Method: DihydroMotuporamine C, 4a, was used to develop an imaginal disc assay in Drosophila flies. The imaginal leg discs were collected by microscopic dissection from maggots. […] Inhibition was measured as failure of the disc to fully develop into a fly leg after 15 hr of incubation in Robb's growth medium. This presumably occurs by overactivation of Rho, an important signaling pathway in development. Hyper-stimulation of this pathway is sufficient to block development of the fly leg.
Fly Stocks: 20 female and 5 male wild type Oregon variant of Drosophila melanogaster interbred in blue food medium for 24 hours then flies are removed. Third instar wall-crawling larvae collected then dissected on the sixth day. Flies kept in 25° C. incubation chamber.
Blue Food Preparation: Standard corn meal medium heated then mixed completely with aqueous 1% Bromophenol Blue. The food medium is cooled for one day or more before use.
Dissection Medium: Ringer's Buffer with 10 uL 0.1% BSA. Ringer's Medium consists of 130 mM NaCl, 5 mM KCl, 1.5 mM CaCl2-2H2O, Stored at room temperature (23° C.), BSA added before dissection.
Cultivation Medium: Minimal Robb's Medium with 10 uL 0.1% BSA. Minimal Robb's Medium consists of 40 mM KCl, 0.4 mM KH2PO4, 40 mM NaCl, 0.4 mM NaH2PO4.7H2O, 1.2 mM MgSO4.7H2O, 1.2 mM MgCl2-6H2O, 1 mM CaCl2-2H2O, 10 mM Glucose, 0.2 mM L-asparagine, 4.0 mM L-glutamine, 0.16 mM Glycine, 0.64 mM L-leucine, 0.32 mM L-proline, 0.16 mM R-Serine, 0.64 mM L-valine. Stored at −25° C. One day before dissection, aliquot defrosted in 4° C. Add BSA then warmed to room temperature (23° C.) before dissection.
0.1% BSA: 0.1 g BSA fraction V (Sigma#A-9647) in 10 mL distilled H2O, Stored at 4° C.
Developmental Hormone: 1 mg 20-hydroxyecdysone (Sigma #H-5142) in 1 mL 100% Ethanol. Stored at −25° C. Before use, stock is diluted 10× (1 mL added to 9 mL of 100% Ethanol). 10 μL of diluted 20-hydroxyecdysone is added to culture.
Dissection Procedures: Third instar larvae are removed from cultivation bottle with a wetted brush and washed in dH2O to remove food medium clinging to larvae. The cleaned larvae are dissected in Ringer's Medium using forceps. The imaginal discs are washed in fresh Ringer's Medium, and then cultivated with 1 mL of Robb's Medium in 12-well culture plate. Each culture well should have 30˜40 imaginal discs.
Culturing Procedures: In a larger container, place the 12-well culture plate on a moist towel, then seal the large container. Cultivate at 25° C. for 15 hours. Evaluation: Three categories will be used to grade the eversion of each imaginal disc. Full Eversion—the leg is fully extended from the disc. Partial Eversion—the leg is protruding from the epithelial. No Eversion—no sign of any protrusion.

L1210 cells [4] = experiment: Cytotoxicity (cell growth, MTT) in L1210 cells; type: cell-based, mouse; details: Mus musculus; L1210 experiments, no added SPD; read-out: L1210 IC50
Text: In terms of Table 1, L1210 cells are mouse leukemia cells and are the gold standard in terms of evaluating polyamine cytotoxicity data due to a plethora of prior data in this cell line for other polyamine structures. Clearly 7a was similar in all respects to 4a (Table 1). […] The lower the Ki value, the higher the affinity of the drug for the polyamine transporter (PAT) on the cell surface. Chinese hamster ovary (CHO) cells and a mutant line without an active PAT (CHO-MG) also evaluated the PAT selectivity of these drugs.
Biological Evaluation. Once synthesized, the conjugates were screened for cytotoxicity in L1210, CHO and CHO-MG cells. L1210 (mouse leukemia) cells were selected to enable comparisons with the published IC50 and Ki values for a variety of polyamine substrates. Chinese Hamster Ovary (CHO) cells were chosen along with a mutant PAT deficient cell line (CHO-MG) in order to comment on selective transport via the PAT (Wang et al, J. Med. Chem. 2003, 46, 2663-2671; Wang et al, J. Med. Chem. 2003, 46, 2672-2682; Wang et al., J. Med. Chem. 2003, 46, 5129-5138; Delcros et al., J. Med. Chem., 2002, 45, 5098-5111).
L1210 IC50 and Ki studies. […] The Ki values in Table 3 were determined for [^14C]spermidine uptake and reflect the affinity of the polyamine derivative for the polyamine transporter on the cell surface. With both parameters, one can determine whether high affinity for the transporter (e.g., low Ki value) translated into high cytotoxicity (e.g., low IC50 value), etc.
Biological studies. Murine leukemia cells (L1210), CHO and CHO-MG cells were grown in RPMI medium supplemented with 10% fetal calf serum, glutamine (2 mM), penicillin (100 U/mL), streptomycin (50 μg/mL). L-Proline (2 μg/mL) was added to the culture medium for CHO-MG cells. Cells were grown at 37° C. under a humidified 5% CO2 atmosphere. Aminoguanidine (AG, 2 mM) was added to the culture medium to prevent oxidation of the drugs by the enzyme (bovine serum amine oxidase) present in calf serum. Trypan blue staining was used to determine cell viability before the initiation of a cytotoxicity experiment. Cells in early to mid log-phase were used. IC50 determinations. Cell growth was assayed in sterile 96-well microtiter plates (Becton-Dickinson, Oxnard, Calif., USA). L1210 cells were seeded at 5e^4 cells/mL of medium (100 μL/well). CHO and CHO-MG cells were plated at 2e^3 cells/mL. Drug solutions (10 μL per well) of appropriate concentration were added at the time of seeding for L1210 cells and after an overnight incubation for the CHO cell lines. After exposure to the drug for 48 hr, cell growth was determined by measuring formazan formation from 3-(4,5-dimethylthiazol-2-yl)2,5-diphenyltetrazolium using a Titertek Multiskan MCC/340 microplate reader for absorbance (540 nm) measurements (Mosmann, T., J. Immunol. Methods 1983, 65, 55-63).

Row | SMILES | IC50 (CHO-MG cells) [µM] | IC50 (CHO cells) [µM] | IC50 Ratio (CHO-MG/CHO), a measure of PAT selectivity (CHO cells) | IC50 (L1210 cells [1]) [µM] | Ki [2] [µM] | inhibition at 18 µM [3] [%] | IC50 (L1210 cells [4]) [µM]
1 | NCCCNCCCN1CCCCCCCCCCCCCC1 [Compound 4a, Dihydromotuporamine C, reference compound] | 10 | 10.5 | 1 | 3 | 9.9 |  | 
2 | CCN(CCCCNCCCCN)Cc1c2ccccc2cc2ccccc12 [Compound 7b, N-(4-Amino-butyl)-N′-anthracen-9-ylmethyl-N′-ethyl-butane-1,4-diamine] | 21.9 | 22.2 | 1 |  | 24.4 | 8 | 22.2
3 | NCCCNCCCNCc1c2ccccc2cc2ccccc12 [Compound 6a] | 3.4 | 1.9 | 1.8 | 1.8 | 33.4 | 60 | 
